Key:
ADAR1 = assay: qPCR analysis of ADAR1 mRNA level and isoforms; assay type: cell-based, human; details: CRC cells transiently transfected, 100 ng/ml
Experimental: C, qPCR analysis of total ADAR1 mRNA level after treatment with 5-AZA-CdR (300 nM, for 5 days) or transfection with 100 ng ml-1 poly(I:C) over a course of 24 days. Cells were washed out at day 5 and seeded in drug-free medium. Data are mean±s.e.m.****P<0.0001, Sidak-corrected two-way ANOVA.
A, ADAR1 isoforms (p110 and p150) relative expression analysed by qPCR. LACZ denotes ADAR1WT; PIC denotes 100 ng/ml poly (I:C) for 5 days; AZA denotes 300 nM 5-AZA-CdR for 5 days). Data are mean±s.e.m. (n=3 from three independent experiments). ***P<0.001, ****P<0.0001, Tukey-corrected two-way ANOVA.
To test this hypothesis, we first determined if ADAR1 depletion affects dsRNA formation by IR-Alus in untreated patient-derived CRCs. We generated ADAR1 knock-down CRCs using two different hairpin RNAs (ADAR1^KDA/B) and confirmed depletion of both the constitutively expressed (p110) and interferon-inducible (p150) ADAR1 isoforms (FIG. 8A). […] To determine if MDA5 ligands also increase upon ADAR1 depletion, we performed the MDA5 protection assay followed by RNA-Seq, as above. […] Again, these immunogenic Alus were primarily IR-Alu pairs unidirectionally transcribed in either the sense (+/+) or antisense (−/−) direction and induced upon ADAR1 depletion (FIG. 9C-J).
Next, we tested whether epigenetic therapy can induce and activate ADAR1 editing activity.

[1] = system: interferon stimulated genes (ISG15, DDX58 and IRF7); assay: interferon response / ISG expression by RNA-seq GSEA and qRT-PCR in patient-derived CRC cells; assay type: cell-based, human; details: transfection in wild-type and ADAR1-depleted cells, across time-points
Source text: H, Geneset Enrichment Analysis showing an enrichment of the geneset ‘Hallmark_Interferon_Alpha_Response’ in ADAR1^KD 5-AZA-treated cells compared to ADAR1^WT 5-AZA-CdR treated cells.
I, Interferon-responsive geneset enrichment score in mock-treated ADAR1^WT, 5-AZA-CdR-treated ADAR1^WT, mock-treated ADAR1^KD, and 5-AZA-CdR-treated ADAR1^KD conditions. Samples were collected 5, 14, and 24 days post-treatment.
B, Kinetics of interferon stimulated genes (ISG15, DDX58 and IRF7) relative expression in ADAR1^WT (Black) and ADAR1^KD (Gray) patient-derived colorectal cancer cells (CRCs) treated with 5-AZA-CdR analyzed by qRT-PCR. Data are mean±s.e.m. (n=3 from three independent experiments). *P<0.05, **P<0.01, ****P<0.0001, Sidak-corrected two-way ANOVA.
C, Interferon-responsive gene expression in ADAR1^WT mock-treated (MT), 5-AZA-CdR treated, ADAR1^KD NT and ADAR1^KD p(I:C) transfected samples collected 5 days, 14 days and 24 days post-treatment, measured by RNA-seq.
D, Kinetics of interferon stimulated genes (ISG15, DDX58 and IRF7) relative expression in ADAR1^WT (Black) and ADAR1^KD (Gray) patient-derived CRCs transfected with p(I:C), analyzed by qRT-PCR. Data are mean±s.e.m. **P<0.01, ****P<0.0001, Sidak-corrected two-way ANOVA.
F, Interferon stimulated genes (ISG15, DDX58 and IRF7) relative expression in CTRL (LUC) (Black) and ADAR1^p150CE (Gray) patient-derived CRCs treated with 5-AZA-CdR, analyzed by qRT-PCR. Data are mean±s.e.m. **P<0.01, ***P<0.001, Sidak-corrected two-way ANOVA.
G, IFN enrichment score in CTRL(LUC) Mock-treated, 5-AZA-CdR treated, ADAR1-p150 overexpressing NT and ADAR1-p150 overexpressing 5-AZA-CdR treated samples collected 5 days post-treatment and measured by RNA-seq.
Based on these findings, we hypothesized that ADAR1 depletion would synergize with the viral mimicry response induced by DNMTi treatment. To assess how ADAR1 depletion affects 5-AZA-CdR treated samples, we performed RNA-seq analyses in patient-derived CRC cells. […] As a molecular read-out of dsRNA pattern recognition activation, we measured MAVS aggregation in the mitochondrial fraction of cell lysates^34. […] Taken together, our findings establish that ADAR1 acts as a negative feedback loop, restricting the viral mimicry response induced by DNMTi treatment in cancer cells.

Poly(I:C)
interferon-inducible isoform of ADAR1 (p150) expression (ADAR1): acute up-regulation | activation of ISGs [1]: comparable activation of ISGs across time-points
